The results in this text go back to patent US9382254B2, “Compounds and pharmaceutical compositions thereof for the treatment of cystic fibrosis” (Galapagos NV, priority 2013, dated 2016).

What all share (assay type): cell-based
The target of assay [1] is T1, CFTR ΔF508 mutant (Homo sapiens, UniProt P13569, DEL508-508).
T1 construct: expressed in transfected cells; host or cells: CFBE41o- (adenoviral transduction)
The experiment in a line: YFP-halide influx assay for the CFTR-ΔF508 mutation, PBS buffer (96 well). Conditions: CFBE41o- cells, forskolin 10.67 μM. The gist of the method: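 CFBE41o- cells were adenovirally transduced with CFTR ΔF508 and YFP H148Q/I152L, then incubated 24 h at 27 °C or with a CFTR modulator at 37 °C. I⁻-induced fluorescence quenching was recorded over 7 s after injection; response expressed as 1−F/F0, with EC50 from concentration plots.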

The next assay concerns the target T2, CFTR-G178R (Homo sapiens, UniProt P13569, G178R).
T2 construct: expressed in transfected cells
The experiment in a line: YFP-halide influx assay for the CFTR-G178R. An outline of the steps:
(§1)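 HEK293 cells reverse-transfected with the CFTR mutant plus halide-sensitive YFP (H148Q/I152L/F47L), expressed 24 h at 37 °C. Channel activity measured as I⁻-induced fluorescence quenching over 7 s after injection, expressed as 1-F/F0; EC50 from 1-F/F0 versus compound concentration.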

The next assay has as its target T3, CFTR G551D mutant (Homo sapiens, UniProt P13569, G551D).
T3 construct: expressed in transfected cells; host or cells: HEK293 (reverse transfection with plasmid)
The experiment in a line: YFP-halide influx assay for the CFTR-G551D mutation. Conditions: HEK293 cells, forskolin 10.67 μM. The gist of the method: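 HEK293 cells reverse-transfected with CFTR G551D and YFP H148Q/I152L/F47L halide sensor, expressed 24 h at 37 °C. Iodide-induced fluorescence quench recorded 7 s after I− injection; response = 1−F/F0, with EC50 from plot against compound concentration.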

Another assay addresses T4, CFTR-S549N (Homo sapiens, UniProt P13569, S549N).
T4 construct: expressed in transfected cells
The experiment in a line: YFP-halide influx assay for the CFTR-S549N. The gist of the method:
as §1

The target of the next assay is T5, CFTR-R117H (Homo sapiens, UniProt P13569, R117H).
T5 construct: expressed in transfected cells
Description: YFP-halide influx assay for the CFTR-R117H. An outline of the steps:
as §1

Assay [2] has as its target T1, CFTR ΔF508 mutant. Description: YFP-halide influx assay for the CFTR-ΔF508 mutation (384 well, FDSS/μCell). The conditions noted are these: CFBE41o- cells, CFTR-ΔF508, 1×D-PBS, fluorescence after 36 seconds. The gist of the method:
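Potentiator read-out as 1−F/F0, F taken 36 s after iodide addition, EC50 fitted against compound concentration. Cells: CFBE41o- expressing ΔF508 CFTR plus halide-sensitive YFP via adenovirus, rescued by 27 °C for 24 h or 24 h modulator at 37 °C.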

A further assay concerns the target T6, CFTR-G1349D (Homo sapiens, UniProt P13569, G1349D).
T6 construct: expressed in transfected cells
The experiment in a line: YFP-halide influx assay for the CFTR-G1349D. The gist of the method: as §1

Assay [3] concerns the target T1, CFTR ΔF508 mutant. The experiment in a line: YFP-halide influx assay for the CFTR-ΔF508 mutation, gluconate buffer. Conditions: CFBE41o- cells, forskolin 10.67 μM. The gist of the method:
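CFBE41o- cells adenovirally transduced with CFTR ΔF508 and YFP H148Q/I152L, then held 24 h at 27 °C or treated with CFTR modulator 24 h at 37 °C. I− quenching recorded for 7 s after injection; activity as 1-F/F0, EC50 from concentration plot.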

Values joined by “and” are separate entries in the source; they are usually repeats but may differ in a detail not shown here. Equal values may be shown once.

T4 sequence (P13569 whole entry S549N): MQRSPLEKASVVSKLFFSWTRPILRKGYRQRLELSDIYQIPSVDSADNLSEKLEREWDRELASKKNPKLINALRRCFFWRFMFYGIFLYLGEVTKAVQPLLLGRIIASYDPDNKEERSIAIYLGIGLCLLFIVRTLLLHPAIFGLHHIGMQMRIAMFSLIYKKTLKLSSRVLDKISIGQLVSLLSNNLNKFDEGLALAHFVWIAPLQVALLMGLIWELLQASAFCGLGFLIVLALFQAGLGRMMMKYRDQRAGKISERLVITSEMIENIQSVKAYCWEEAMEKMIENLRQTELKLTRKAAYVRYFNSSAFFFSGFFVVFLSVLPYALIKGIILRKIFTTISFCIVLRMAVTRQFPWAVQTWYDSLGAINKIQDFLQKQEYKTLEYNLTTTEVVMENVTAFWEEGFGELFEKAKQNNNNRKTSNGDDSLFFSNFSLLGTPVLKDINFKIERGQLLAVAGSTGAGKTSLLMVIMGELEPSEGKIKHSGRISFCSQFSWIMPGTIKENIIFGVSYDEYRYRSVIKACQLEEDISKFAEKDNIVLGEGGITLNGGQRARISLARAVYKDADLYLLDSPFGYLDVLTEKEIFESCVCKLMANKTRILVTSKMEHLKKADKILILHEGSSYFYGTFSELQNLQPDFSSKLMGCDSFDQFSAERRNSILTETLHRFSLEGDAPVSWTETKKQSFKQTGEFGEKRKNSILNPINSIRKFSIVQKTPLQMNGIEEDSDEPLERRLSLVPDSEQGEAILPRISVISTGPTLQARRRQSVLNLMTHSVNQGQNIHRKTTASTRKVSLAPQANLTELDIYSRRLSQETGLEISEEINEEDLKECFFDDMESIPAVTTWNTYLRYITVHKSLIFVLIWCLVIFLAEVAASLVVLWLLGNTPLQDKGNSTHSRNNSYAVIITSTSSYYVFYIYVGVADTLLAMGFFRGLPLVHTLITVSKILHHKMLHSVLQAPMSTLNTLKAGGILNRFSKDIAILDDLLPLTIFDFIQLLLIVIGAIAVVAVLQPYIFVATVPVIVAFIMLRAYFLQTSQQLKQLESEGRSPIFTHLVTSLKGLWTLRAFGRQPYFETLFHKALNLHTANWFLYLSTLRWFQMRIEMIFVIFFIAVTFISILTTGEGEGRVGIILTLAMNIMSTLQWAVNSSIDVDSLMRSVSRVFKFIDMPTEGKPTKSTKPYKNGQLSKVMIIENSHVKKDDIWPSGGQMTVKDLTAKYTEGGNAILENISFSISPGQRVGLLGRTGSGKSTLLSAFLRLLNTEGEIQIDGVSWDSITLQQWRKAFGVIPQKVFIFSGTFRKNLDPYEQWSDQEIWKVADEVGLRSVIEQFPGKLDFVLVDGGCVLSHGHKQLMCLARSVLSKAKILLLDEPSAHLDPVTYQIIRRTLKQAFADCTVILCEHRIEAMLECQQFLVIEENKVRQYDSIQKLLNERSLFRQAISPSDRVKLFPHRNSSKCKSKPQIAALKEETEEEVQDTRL
T2 sequence (P13569 whole entry G178R): as the sequence (P13569 whole entry S549N) above, with G178R, N549S counted along it
T1 sequence (P13569 with tags, fused parts or gaps DEL508-508): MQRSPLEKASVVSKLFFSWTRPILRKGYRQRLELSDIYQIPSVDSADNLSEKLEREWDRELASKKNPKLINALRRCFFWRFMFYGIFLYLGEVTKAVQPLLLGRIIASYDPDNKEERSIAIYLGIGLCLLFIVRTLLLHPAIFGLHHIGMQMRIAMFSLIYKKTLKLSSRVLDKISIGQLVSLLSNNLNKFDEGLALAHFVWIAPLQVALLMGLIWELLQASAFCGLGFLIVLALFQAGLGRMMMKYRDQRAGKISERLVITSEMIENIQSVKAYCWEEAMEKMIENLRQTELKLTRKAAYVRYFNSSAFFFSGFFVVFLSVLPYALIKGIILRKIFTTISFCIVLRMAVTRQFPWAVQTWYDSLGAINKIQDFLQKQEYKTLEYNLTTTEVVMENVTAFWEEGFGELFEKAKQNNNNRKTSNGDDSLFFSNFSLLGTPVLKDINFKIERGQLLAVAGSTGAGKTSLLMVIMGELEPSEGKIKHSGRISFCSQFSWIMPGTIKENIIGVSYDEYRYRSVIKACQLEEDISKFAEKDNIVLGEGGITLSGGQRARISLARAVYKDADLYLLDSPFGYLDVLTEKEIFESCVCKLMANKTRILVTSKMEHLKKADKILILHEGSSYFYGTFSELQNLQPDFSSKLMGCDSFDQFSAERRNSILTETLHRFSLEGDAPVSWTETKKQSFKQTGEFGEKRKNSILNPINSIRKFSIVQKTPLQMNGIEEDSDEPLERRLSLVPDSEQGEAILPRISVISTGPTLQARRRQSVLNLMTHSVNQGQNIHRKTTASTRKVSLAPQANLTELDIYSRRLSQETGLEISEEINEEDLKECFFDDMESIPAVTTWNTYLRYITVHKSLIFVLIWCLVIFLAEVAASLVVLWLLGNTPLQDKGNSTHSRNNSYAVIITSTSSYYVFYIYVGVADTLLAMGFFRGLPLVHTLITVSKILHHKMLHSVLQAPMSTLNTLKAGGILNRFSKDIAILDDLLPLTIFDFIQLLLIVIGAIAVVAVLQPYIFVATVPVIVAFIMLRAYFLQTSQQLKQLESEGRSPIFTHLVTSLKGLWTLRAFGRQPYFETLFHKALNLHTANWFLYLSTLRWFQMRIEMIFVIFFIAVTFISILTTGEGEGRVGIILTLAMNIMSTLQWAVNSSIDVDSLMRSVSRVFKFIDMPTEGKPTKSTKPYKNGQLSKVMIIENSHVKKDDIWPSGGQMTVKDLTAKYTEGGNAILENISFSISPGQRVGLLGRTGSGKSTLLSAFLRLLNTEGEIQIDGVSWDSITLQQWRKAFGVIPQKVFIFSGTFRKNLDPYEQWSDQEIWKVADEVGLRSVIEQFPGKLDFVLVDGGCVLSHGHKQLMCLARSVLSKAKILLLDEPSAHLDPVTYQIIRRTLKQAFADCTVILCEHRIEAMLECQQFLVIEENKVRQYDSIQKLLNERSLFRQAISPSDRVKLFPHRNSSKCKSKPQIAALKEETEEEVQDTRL
T5 sequence (P13569 whole entry R117H): as the sequence (P13569 whole entry S549N) above, with R117H, N549S counted along it
T3 sequence (P13569 whole entry G551D): as the sequence (P13569 whole entry S549N) above, with N549S, G551D counted along it
T6 sequence (P13569 whole entry G1349D): as the sequence (P13569 whole entry S549N) above, with N549S, G1349D counted along it

On to `CC(C)(O)C(=O)Nc1sc(S(=O)(=O)c2ccc(OC(F)(F)F)cc2)cc1C(N)=O` [Compound 270, 2-(2-hydroxy-2-methylpropanamido)-5-(4-(trifluoromethoxy)phenylsulfonyl) thiophene-3-carboxamide], for which the EC50 came to 19.7 nM on CFTR ΔF508 mutant [1]; 291 nM at CFTR-G178R; 478 nM on CFTR G551D mutant; 415 nM at CFTR-S549N; 181 nM at CFTR-R117H; 18.3 nM at CFTR ΔF508 mutant [2]. The compound also had an EC50 on CFTR-G1349D of 211 nM.
Consider `CC(C)(O)C(=O)Nc1sc(S(=O)(=O)c2ccc(F)cc2Cl)cc1C(N)=O` [Compound 286, 5-(2-chloro-4-fluorophenylsulfonyl)-2-(2-hydroxy-2-methylpropanamido) thiophene-3-carboxamide], for which the EC50 on CFTR ΔF508 mutant [1] was 46.2 nM; on CFTR-G178R, 165 nM; at CFTR G551D mutant, 857 nM; on CFTR-S549N, 1150 nM; at CFTR-R117H it was 160 nM; on CFTR ΔF508 mutant [2] it was 26.5 nM. On CFTR-G1349D, the EC50 came out at 304 nM.
For the compound `CC(C)(O)C(=O)Nc1sc(S(=O)(=O)c2ccccc2Cl)cc1C(N)=O` [Compound 290, 5-(2-chlorophenylsulfonyl)-2-(2-hydroxy-2-methylpropanamido) thiophene-3-carboxamide], the EC50 on CFTR ΔF508 mutant [1] came out at 34.3 nM; on CFTR-G178R, 207 nM; on CFTR G551D mutant it was 880 nM; at CFTR-S549N, 871 nM; at CFTR-R117H, 166 nM; on CFTR ΔF508 mutant [2], 27.6 nM. On CFTR-G1349D, this compound had an EC50 of 258 nM.
For `CC(C)(O)C(=O)Nc1sc(S(=O)(=O)c2ccccc2OC(F)(F)F)cc1C(N)=O` [Compound 271, 2-(2-hydroxy-2-methylpropanamido)-5-(2-(trifluoromethoxy)phenylsulfonyl) thiophene-3-carboxamide], the EC50 is 8.1 nM on CFTR ΔF508 mutant [1]; 23.9 nM on CFTR-G178R; 178 nM at CFTR G551D mutant; 60.9 nM at CFTR-S549N; 40 nM on CFTR-R117H; 7.5 nM at CFTR ΔF508 mutant [2]. Besides, the EC50 at CFTR-G1349D was found to be 37.5 nM.
Regarding `NC(=O)c1cc(S(=O)(=O)c2ccc(F)cc2)sc1NC(=O)C1(CO)CC1` [Compound 254, 5-(4-fluorophenylsulfonyl)-2-(1-(hydroxymethyl)cyclopropanecarboxamido) thiophene-3-carboxamide], the EC50 at CFTR ΔF508 mutant [1] is 30.3 nM and 137 nM; at CFTR-G178R it was 58 nM; at CFTR G551D mutant, 878 nM and 1410 nM; at CFTR-S549N it was 243 nM; at CFTR-R117H, 127 nM; at CFTR ΔF508 mutant [2], 27.8 nM. At CFTR-G1349D, this compound had an EC50 of 141 nM.
Consider `NC(=O)c1cc(S(=O)(=O)c2ccccc2)sc1NC(=O)c1cc[nH]n1` [Compound 83, N-(3-carbamoyl-5-(phenylsulfonyl)thiophen-2-yl)-1H-pyrazole-3-carboxamide], for which the EC50 came out at 30.8 nM on CFTR ΔF508 mutant [1]; 71.3 nM at CFTR-G178R; 339 nM at CFTR G551D mutant; 353 nM on CFTR-S549N; 222 nM on CFTR-R117H; 12.1 nM on CFTR ΔF508 mutant [2]. Moreover, the EC50 on CFTR-G1349D was 152 nM; at CFTR ΔF508 mutant [3] it was 42.8 nM.
Take `CN(Cc1ccccc1)S(=O)(=O)c1cc(C(N)=O)c(NC(=O)c2ccn[nH]2)s1` [Compound 73, N-(5-(N-benzyl-N-methylsulfamoyl)-3-carbamoylthiophen-2-yl)-1H-pyrazole-3-carboxamide]: the EC50 on CFTR ΔF508 mutant [1] turned out to be 16.5 nM; on CFTR-G178R, 44.7 nM; at CFTR G551D mutant, 232 nM; on CFTR-S549N, 162 nM; on CFTR-R117H it was 168 nM; on CFTR ΔF508 mutant [2], 15.7 nM. Also, the results for the EC50 on CFTR-G1349D and on CFTR ΔF508 mutant [3] were 41.6 nM and 25.1 nM, respectively.
In the case of `CC(C)(O)C(=O)Nc1sc(S(=O)(=O)c2cc(Cl)cc(C(F)(F)F)c2)cc1C(N)=O` [Compound 429, 5-[3-chloro-5-(trifluoromethyl)phenyl]sulfonyl-2-[(2-hydroxy-2-methyl-propanoyl)amino] thiophene-3-carboxamide], the EC50 came out at 142 nM on CFTR-G178R; 936 nM at CFTR G551D mutant; 507 nM on CFTR-S549N; 208 nM at CFTR-R117H; 17.5 nM on CFTR ΔF508 mutant [2]; 229 nM at CFTR-G1349D.
Turning to `CC(O)C(=O)Nc1sc(S(=O)(=O)c2ccc(F)cc2C(F)(F)F)cc1C(N)=O` (stereo not shown) [Compound 325, 5-[4-fluoro-2-(trifluoromethyl)phenyl] sulfonyl-2-(2-hydroxypropanoylamino) thiophene-3-carboxamide], the EC50 was found to be 1880 nM at CFTR-G178R; 2790 nM at CFTR G551D mutant; 2140 nM on CFTR-S549N; 793 nM at CFTR-R117H; 11.1 nM on CFTR ΔF508 mutant [2]; 2570 nM on CFTR-G1349D.
Take `CC(C)(O)C(=O)Nc1sc(S(=O)(=O)c2ncccc2C(F)(F)F)cc1C(N)=O` [Compound 411, 2-[(2-hydroxy-2-methyl-propanoyl)amino]-5-[[3-(trifluoromethyl)-2-pyridyl]sulfonyl] thiophene-3-carboxamide]: the EC50 on CFTR-G178R was 136 nM; at CFTR G551D mutant, 4920 nM; on CFTR-S549N, 861 nM; on CFTR-R117H it was 488 nM; on CFTR ΔF508 mutant [2], 61 nM; at CFTR-G1349D, 1040 nM.
Take `COc1ccc(OC(F)(F)F)c(S(=O)(=O)c2cc(C(N)=O)c(NC(=O)C(C)(C)O)s2)c1` [Compound 373, 2-[(2-hydroxy-2-methyl-propanoyl)amino]-5-[5-methoxy-2-(trifluoromethoxy)phenyl]sulfonyl-thiophene-3-carboxamide]: the EC50 at CFTR-G178R was 19.7 nM; at CFTR G551D mutant, 100 nM; at CFTR-S549N, 70.5 nM; on CFTR-R117H, 46.1 nM; at CFTR ΔF508 mutant [2], 13.2 nM; on CFTR-G1349D it was 31.9 nM.
For `CC(C)(O)C(=O)Nc1sc(S(=O)(=O)c2c(Cl)cccc2Cl)cc1C(N)=O` [Compound 298, 5-(2,6-Dichloro-benzenesulfonyl)-2-(2-hydroxy-2-methyl-propionylamino)-thiophene-3-carboxylic acid amide], the EC50 at CFTR ΔF508 mutant [1] is 6.2 nM; at CFTR-G178R it was 104 nM; on CFTR G551D mutant, 207 nM; on CFTR-S549N, 164 nM; on CFTR-R117H, 97.2 nM; at CFTR ΔF508 mutant [2] it was 5.5 nM. The compound also displayed an EC50 on CFTR-G1349D of 69.5 nM.
Turning to `CC(C)(O)C(=O)Nc1sc(S(=O)(=O)c2cccc(C(F)(F)F)c2)cc1C(N)=O` [Compound 408, 2-[(2-hydroxy-2-methyl-propanoyl)amino]-5-[3-(trifluoromethyl)phenyl]sulfonyl-thiophene-3-carboxamide], the EC50 is 42.7 nM at CFTR-G178R; 1770 nM on CFTR G551D mutant; 525 nM at CFTR-S549N; 535 nM on CFTR-R117H; 11 nM at CFTR ΔF508 mutant [2]; 149 nM at CFTR-G1349D.

For orientation: EC50 means the concentration at which the effect is half-maximal. A lower EC50 goes with a more potent agent.
